Data: patent US11332438B2, “Creatine prodrugs, compositions and methods of use thereof” (Ultragenyx Pharmaceutical Inc., priority 2017, dated 2022)
Each block holds one molecule with its values, some of them ahead of it.

Legend:
[1] = Plasma stability, human plasma; type: in vitro ADME; conditions: for half-life: 37 °C, read-out: Plasma Stability Human t1/2
Experimental: (§1) The stabilities of creatine prodrugs can be evaluated in one or more in vitro systems using a variety of preparations following methods known in the art. Experimental conditions useful for the in vitro studies are described in Table 1. Prodrug is added to each preparation in triplicate. […]
(§2) Protocol for plasma stability for early screen macrocycles (Method A):
(§3) Frozen plasma was thawed by placing at 37° C. quickly and centrifuged at 3,000 rpm for 8 minutes to remove clots. Then the supernatant was pipetted and pooled as the plasma to be used in the experiment. The plasma was placed on ice until used. The test compounds and reference compounds spiking solution was prepared as a 2.5 mM test compounds spiking solution A: Add 20 μL of 10 mM test compounds stock solution to 60 μL DMSO. 0.1 mM Spiking solution B was prepared: Add 40 μL of spiking solution A to 960 μL of […] Sodium phosphate buffer with 0.5% BSA. […] For 0-min, 400 μL of ACN containing IS was added to the wells of 0-min plate and then 90 μL of plasma was added. […] 50 μL of the supernatant was transferred from each well into a 96-well sample plate containing 120 μL of ultra pure water (Millipore, ZMQS50F01) and analyzed by LC/MS.
(§4) Protocol for plasma stability (Method B):
(§5) The frozen plasma was thawed in a 37° C. water bath and then, if needed, adjusted to pH=7.4 then preheated in a 37° C. incubator. The test article was dissolved in 10% DMSO/water and spiked into plasma pre-plated into 96 well plates at a final concentration of 1 μM. Discrete incubations were performed at 37° C. and included 5 time points: t=0, 2, 5, 15, and 30 min. Samples were then crashed with 4× volume, ice cold 20% water/80% acetonitrile and spun at 4000 g for 10 mins. The supernatant was dried down and reconstituted with water and analyzed by LC-MS/MS. The half life in minute was calculated.

[2] = Plasma stability, mouse plasma; type: in vitro ADME; conditions: for half-life: 37 °C, read-out: Plasma Stability Mouse t1/2
Experimental: as §1, §2, §3, §4, §5

[3] = Chemical stability in phosphate buffered saline (PBS); type: physicochemical; conditions: 50 μM prodrug
Experimental: (§6) Chemical stability of creatine prodrugs in phosphate buffered saline (PBS), simulated intestinal fluid (SIF) without pancreatin, simulated gastric fluid (SGF) without pepsin were determined by LC-UV, LC-CAD, LC-UV-CAD or LC-MS/MS as appropriate. Creatine prodrugs of the present disclosure (50 μM) were incubated at 37° C. according to described protocols and prodrug levels were compared between t=0, t=15, t=60, and t=120 mins by peak area ratio to determine the percentage remained at t=120 mins (2 h).
(§7) Protocol for PBS, SIF and SGF stability for screening:
(§8) Prodrugs (50 μM) were incubated in PBS, FaSSIF (Biorelevant) or FaSSGF (Biorelevant) at 37° C.

[4] = Chemical stability in simulated gastric fluid (SGF) without pepsin; type: physicochemical; conditions: 50 μM prodrug
Experimental: as §6, §7, §8

[5] = Liver microsome stability, human; type: in vitro ADME; conditions: liver microsomes, read-out: Microsome Stability Human t1/2
Experimental: as §1
(§9) Protocol for Microsomal Stability:
(§10) For reference compound, a 500 μM spiking solution was prepared: add 10 μL of 10 mM DMSO stock solution into 190 μL ACN. […] For test compound, a 5 mM spiking solution was prepared: add 10 μL of 10 mM DMSO stock solution into 10 μL ACN. […] NADPH stock solution (6 mM) was prepared by dissolving NADPH into buffer 0.1 M Potassium Phosphate buffer, 1.0 mM EDTA, pH 7.4. […] For 0-min, 135 μL of ACN containing IS was added to the wells of 0-min plate and then 15 μL of NADPH stock solution (6 mM) was added. 15 μL of NADPH stock solution (6 mM) was added to the samples designated as 0-, 5-, 10-, 20-, 30-min, 60-min; 15 μL of buffer 0.1 M Potassium Phosphate buffer, 1.0 mM EDTA, pH 7.4, was added to the samples designated as 60-min without NADPH. At 5-min, 10-min, 20-min, and 30-min, 60-min 135 μL of ACN containing IS was added to the wells of corresponding plates, respectively, to stop the reaction. […] 50 μL of the supernatant from each well was transferred into a 96-well sample plate containing 50 μL of ultra pure water (Millipore, ZMQS50FOI) and analyzed by LC/MS.

[6] = Liver microsome stability, mouse; type: in vitro ADME; conditions: liver microsomes, read-out: Microsome Stability Mouse t1/2
Experimental: as §1, §9, §10

SMILES: O=CO.[2H]C([2H])([2H])N1CC(=O)OCCCCCCCC(=O)NC1=N [Compound BB, 5-imino-4-trideuteriomethylguanidino-1-oxa-4,6-diazacyclotetradecane-2,7-dione Formate]
Plasma Stability Human t1/2 [1]: 9 min | Plasma Stability Mouse t1/2 [2]: <2 min

Chemical Stability PBS % T0 at 2 hours at 37 °C. ([3]; Table 2B): 101% | Chemical Stability SGF, no enzyme % T0 at 2 hours at 37 °C. ([4]; Table 2B): 30%
SMILES: Cl.[2H]C([2H])([2H])N(CC(=O)OC(C)(C)C(F)(F)F)C(=N)NC(=O)CCCCCCCCCC [Compound 59]

Chemical Stability PBS % T0 at 2 hours at 37 °C. ([3]; Table 2B): 97% | Chemical Stability SGF, no enzyme % T0 at 2 hours at 37 °C. ([4]; Table 2B): 94%
SMILES: Cl.[2H]C([2H])([2H])N(CC(=O)OC(C)(C)C(F)(F)F)C(=N)NC(=O)CCCCCC [Compound 55]

half-life ([1]; Table 2C, macrocycles): 8 min | half-life ([2]; Table 2C, macrocycles): 1.1 min
SMILES: Cl.[2H]C([2H])([2H])N1CC(=O)O[C@@H](C)CCCCCCCCCC(=O)NC1=N [Compound PP, (S)-5-imino-17-methyl-4-(methyl-d3)-1-oxa-4,6-diazacycloheptadecane-2,7-dione Hydrochloride]

half-life ([1]; Table 2C, macrocycles): 34 min | half-life ([2]; Table 2C, macrocycles): 3 min | half-life at 10 μM ([5]; pH 7.4, Table 2C): 1.6 min | half-life at 10 μM ([6]; pH 7.4, Table 2C): 0.6 min
SMILES: Cl.[2H]C([2H])([2H])N1CC(=O)OC(CC)CCCCCCCCCC(=O)NC1=N (stereo not shown) [Compound L, 17-ethyl-5-imino-4-trideuteriomethyl-1-oxa-4,6-diazacycloheptadecane-2,7-dione Hydrochloric Acid Salt]

half-life ([1]; Table 2C, macrocycles): > 90 min | Chemical Stability PBS % T0 at 2 hours at 37 °C. ([3]; Table 2C): 0% | Chemical Stability SGF, no enzyme % T0 at 2 hours at 37 °C. ([4]; Table 2C): 85%
SMILES: O=CO.[2H]C([2H])([2H])N1CC(=O)OCCCCCCCCCC(=O)NC1=N [Compound SS, 5-imino-4-trideuteriomethyl-1-oxa-4,6-diazacyclohexadecane-2,7-dione Formic Acid Salt]

half-life ([1]; Table 2C, macrocycles): 8.3 min | half-life ([2]; Table 2C, macrocycles): < 2 min
SMILES: [2H]C([2H])([2H])N1CC(=O)OCCCCCCCCC(=O)NC1=N [Compound DD, 5-imino-4-trideuteriomethyl-1-oxa-4,6-diazacyclopentadecane-2,7-dione]

half-life ([1]; Table 2B): > 180 min | half-life ([2]; Table 2B): > 180 min | half-life at 10 μM ([5]; pH 7.4, Table 2B): > 90 min | half-life at 10 μM ([6]; pH 7.4, Table 2B): > 90 min
SMILES: [2H]C([2H])([2H])N(CC(=O)[O-])C(=N)NC(=O)CCCCCCCCCO.[Na+] [Compound 58]

half-life ([1]; Table 2A): > 180 min | half-life ([2]; Table 2A): > 180 min | half-life at 10 μM ([5]; pH 7.4, Table 2A): > 180 min | half-life at 10 μM ([6]; pH 7.4, Table 2A): 123 min
SMILES: [2H]C([2H])([2H])N(CC(=O)O)C(=NC(=O)OC(C)(C)C)NC(=O)CCCCCCCCCC [Compound 34]

Chemical Stability PBS % T0 at 2 hours at 37 °C. ([3]; Table 2A): 97% | Chemical Stability SGF, no enzyme % T0 at 2 hours at 37 °C. ([4]; Table 2A): 98%
SMILES: Cl.[2H]C([2H])([2H])N(CC(=O)OCc1oc(=O)oc1C)C(=N)NC(=O)CCCCCCCCCC [Compound 48]

half-life ([1]; Table 2A): > 180 min | half-life ([2]; Table 2A): > 180 min | half-life at 10 μM ([5]; pH 7.4, Table 2A): 110 min | half-life at 10 μM ([6]; pH 7.4, Table 2A): > 145 min
SMILES: [2H]C([2H])([2H])N(CC(=O)[O-])C(=N)NC(=O)CCCCCCCCCC.[Na+] [Compound 32]

half-life ([1]; Table 2C, macrocycles): 13 min | half-life ([2]; Table 2C, macrocycles): 2 min
SMILES: Cl.[2H]C([2H])([2H])N1CC(=O)OC(C)CCCCCCCCCC(=O)NC1=N (stereo not shown) [Compound K, 5-imino-4-trideuteriomethylguanidino-17-dimethyl-1-oxa-4,6-diazacycloheptadecane-2,7-dione Dihydrochloride]

half-life at 10 μM ([5]; pH 7.4, Table 2C): 9 min | half-life at 10 μM ([6]; pH 7.4, Table 2C): 4 min | Chemical Stability PBS % T0 at 2 hours at 37 °C. ([3]; Table 2C): 85% | Chemical Stability SGF, no enzyme % T0 at 2 hours at 37 °C. ([4]; Table 2C): 79%
SMILES: [2H]C([2H])([2H])N1CC(=O)OCCCCCCCCCCCC(=O)NC1=N [Compound QQ, 5-imino-4-trideuteriomethyl-1-oxa-4,6-diazacyclooctadecane-2,7-dione]

half-life ([1]; Table 2A): > 180 min | half-life ([2]; Table 2A): > 180 min | half-life at 10 μM ([5]; pH 7.4, Table 2A): 114 min | half-life at 10 μM ([6]; pH 7.4, Table 2A): > 145 min
SMILES: [2H]C([2H])([2H])N(CC(=O)[O-])C(=N)NC(=O)CCCCCCC.[Li+] [Compound 37]

Chemical Stability PBS % T0 at 2 hours at 37 °C. ([3]; Table 2B): 64% | Chemical Stability SGF, no enzyme % T0 at 2 hours at 37 °C. ([4]; Table 2B): 91%
SMILES: Cl.[2H]C([2H])([2H])N(CC(=O)OC(C)C(C)(C)C)C(=N)NC(=O)CCCCCC (stereo not shown) [Compound 53]
